Measurements from PubChem BioAssay AID1259407 (Chemical Carcinogenesis Research Information System (CCRIS), 2018).
Calls of active or inactive are those of the source. How the calls were made is not given here.

Tested on: CCRIS mutagenicity, Ames/micronucleus/aberration tests
Assay: CCRIS mutagenicity studies

Measured: mutagenic call

Cn1c(N)nc2ncc(-c3ccccc3)cc21
inactive: Test System: AMES SALMONELLA TYPHIMURIUM, Strain/Indicator: TA98, Metabolic Activation: MOUSE, KIDNEY, S-9, PHENETHYL ISOTHIOCYANATE, Method: STANDARD PLATE inactive; negative | Test System: AMES SALMONELLA TYPHIMURIUM, Strain/Indicator: TA98, Metabolic Activation: MOUSE, KIDNEY, S-9, Method: STANDARD PLATE inactive; negative | Test System: AMES SALMONELLA TYPHIMURIUM, Strain/Indicator: TA98, Metabolic Activation: MOUSE, LUNG, S-9, PHENETHYL ISOTHIOCYANATE, Method: STANDARD PLATE inactive; negative | Test System: AMES SALMONELLA TYPHIMURIUM, Strain/Indicator: TA98, Metabolic Activation: MOUSE, LUNG, S-9, Method: STANDARD PLATE inactive; negative | Test System: AMES SALMONELLA TYPHIMURIUM, Strain/Indicator: TA98, Metabolic Activation: RAT, COLON, S-9, 3-METHYLCHOLANTHRENE, Method: STANDARD PLATE inactive; negative | Test System: AMES SALMONELLA TYPHIMURIUM, Strain/Indicator: TA100, Metabolic Activation: RAT, LIVER, S-9, AROCLOR 1254, Method: PREINCUBATION inactive; negative | Test System: AMES SALMONELLA TYPHIMURIUM, Strain/Indicator: TA1978, Metabolic Activation: S-9 (2 MG/ML, 0.1 ML), Method: MICROSUSPENSION inactive; negative | Test System: AMES SALMONELLA TYPHIMURIUM, Strain/Indicator: YG1024, Metabolic Activation: RAT, COLON, S-9, 3-METHYLCHOLANTHRENE, Method: STANDARD PLATE inactive; negative
active: End Point: IN VITRO MICRONUCLEUS, Test System: CHL/IU CELLS, Metabolic Activation: RAT, LIVER, S-9, PHENOBARBITAL AND 5,6-BENZOFLAVONE active; positive | End Point: IN VIVO MICRONUCLEUS, Test System: BONE MARROW POLYCHROMATIC ERYTHROCYTES, Species: MOUSE, Strain/Sex: BALB/C/MALE, Route: IP INJECTION active; positive | End Point: IN VIVO MICRONUCLEUS, Test System: SPLENOCYTES, Species: MOUSE, Strain/Sex: BALB/C, Route: IO active; positive only for 48.8 mg dose at either 2 or 16 days after treatment | Test System: AMES SALMONELLA TYPHIMURIUM, Strain/Indicator: TA98(1,8-DNP6), Metabolic Activation: RAT, LIVER, S-9, AROCLOR, Method: PREINCUBATION active; positive | Test System: AMES SALMONELLA TYPHIMURIUM, Strain/Indicator: TA98(1,8-DNP6), Metabolic Activation: RAT, LIVER, S-9, Method: STANDARD PLATE active; positive | Test System: AMES SALMONELLA TYPHIMURIUM, Strain/Indicator: TA98, Metabolic Activation: HUMAN, LIVER, MICROSOMES, Method: PREINCUBATION active; positive | Test System: AMES SALMONELLA TYPHIMURIUM, Strain/Indicator: TA98, Metabolic Activation: MONKEY, LIVER, MICROSOMES, Method: PREINCUBATION active; positive | Test System: AMES SALMONELLA TYPHIMURIUM, Strain/Indicator: TA98, Metabolic Activation: MOUSE, LIVER, S-9, PHENETHYL ISOTHIOCYANATE, Method: STANDARD PLATE active; positive | Test System: AMES SALMONELLA TYPHIMURIUM, Strain/Indicator: TA98, Metabolic Activation: MOUSE, LIVER, S-9, Method: STANDARD PLATE active; positive | Test System: AMES SALMONELLA TYPHIMURIUM, Strain/Indicator: TA98, Metabolic Activation: RAT, LIVER, HEPATOCYTES, AROCLOR 1254, Method: PREINCUBATION active; positive | Test System: AMES SALMONELLA TYPHIMURIUM, Strain/Indicator: TA98, Metabolic Activation: RAT, LIVER, HEPATOCYTES, Method: PREINCUBATION active; positive | Test System: AMES SALMONELLA TYPHIMURIUM, Strain/Indicator: TA98, Metabolic Activation: RAT, LIVER, MICROSOMES, Method: PREINCUBATION active; positive | Test System: AMES SALMONELLA TYPHIMURIUM, Strain/Indicator: TA98, Metabolic Activation: RAT, LIVER, S-9, AROCLOR 1254, Method: PREINCUBATION active; positive | Test System: AMES SALMONELLA TYPHIMURIUM, Strain/Indicator: TA98, Metabolic Activation: RAT, LIVER, S-9, AROCLOR, Method: PREINCUBATION active; positive | Test System: AMES SALMONELLA TYPHIMURIUM, Strain/Indicator: TA98, Metabolic Activation: RAT, LIVER, S-9, Method: STANDARD PLATE active; positive | Test System: AMES SALMONELLA TYPHIMURIUM, Strain/Indicator: TA98, Metabolic Activation: S-9, Method: MICROSUSPENSION active; positive | Test System: AMES SALMONELLA TYPHIMURIUM, Strain/Indicator: TA1978, Metabolic Activation: S-9 (0.5 ML), Method: MICROSUSPENSION active; positive | Test System: AMES SALMONELLA TYPHIMURIUM, Strain/Indicator: TA1978, Metabolic Activation: S-9 (2 MG/ML, 0.25 ML), Method: MICROSUSPENSION active; positive | Test System: AMES SALMONELLA TYPHIMURIUM, Strain/Indicator: YG1019, Metabolic Activation: RAT LIVER S-9, AROCLOR, Method: PREINCUBATION active; positive | Test System: AMES SALMONELLA TYPHIMURIUM, Strain/Indicator: YG1024, Metabolic Activation: RAT, LIVER, S-9, AROCLOR, Method: PREINCUBATION active; positive | Test System: CHINESE HAMSTER V-79, Strain/Indicator: V-79/6-THIOGUANINE, Metabolic Activation: HAMSTER, PANCREAS DUCT, EPITHELIAL CELLS active; positive | Test System: CHINESE HAMSTER V-79, Strain/Indicator: V-79/6-THIOGUANINE, Metabolic Activation: HUMAN, PANCREAS DUCT, EPITHELIAL CELLS active; positive | Test System: CHINESE HAMSTER V-79, Strain/Indicator: XEMH1A2-MZ (HPRT)/6-THIOGUANINE, Metabolic Activation: NONE active; positive | Test System: HUMAN COLON CANCER CELLS, Strain/Indicator: DLD-1 (HPRT)/6-THIOGUANINE, Metabolic Activation: MOUSE LIVER S-9, PHENOBARBITAL AND 5,6-BENZOFLAVONE, Method: SUSPENSION/PLATE active; positive | Test System: HUMAN COLON CANCER CELLS, Strain/Indicator: HCT116 (HPRT)/6-THIOGUANINE, Metabolic Activation: MOUSE LIVER S-9, PHENOBARBITAL AND 5,6-BENZOFLAVONE, Method: SUSPENSION/PLATE active; positive | Test System: UDS HUMAN HEPATOCYTES, Strain/Indicator: THY INCORP, Metabolic Activation: NONE, Method: AUTORADIOGRAPHY active; positive | Test System: UDS MOUSE HEPATOCYTES, Strain/Indicator: THY INCORP, Metabolic Activation: NONE, Method: AUTORADIOGRAPHY active; positive

CC(C)([CH2][Sn]([CH2]C(C)(C)c1ccccc1)([CH2]C(C)(C)c1ccccc1)[O][Sn]([CH2]C(C)(C)c1ccccc1)([CH2]C(C)(C)c1ccccc1)[CH2]C(C)(C)c1ccccc1)c1ccccc1
inactive: End Point: In vitro chromosomal aberrations, Test System: Human lymphocytes, Metabolic Activation: None inactive; negative | End Point: In vitro chromosomal aberrations, Test System: Human lymphocytes, Metabolic Activation: Rat, Liver, S-9, Aroclor 1254 inactive; negative | End Point: In vivo micronucleus, Test System: Bone marrow polychromatic erythrocytes, Species: Mouse, Strain/Sex: Crl:CD-1(ICR)BR/Male and female, Route: Oral inactive; negative | End Point: UDS, Test System: Rat primary hepatocytes, Metabolic Activation: None, Method: Autoradiography inactive; negative | Test System: Chinese hamster ovary cells, Strain/Indicator: CHO cells (HPRT)/6-Thioguanine, Metabolic Activation: None, Method: Standard plate inactive; negative | Test System: Chinese hamster ovary cells, Strain/Indicator: CHO cells (HPRT)/6-Thioguanine, Metabolic Activation: Rat, Liver, S-9, Aroclor 1254, Method: Standard plate inactive; negative

CC(Cl)c1ccccc1 (stereo not drawn)
inactive: Test System: AMES SALMONELLA TYPHIMURIUM, Strain/Indicator: TA98, Metabolic Activation: NONE, Method: STANDARD PLATE inactive; negative | Test System: AMES SALMONELLA TYPHIMURIUM, Strain/Indicator: TA100, Metabolic Activation: NONE, Method: STANDARD PLATE inactive; negative

Cc1ccc2c(ccc3c4ccccc4ccc23)c1
inactive: Test System: AMES SALMONELLA TYPHIMURIUM, Strain/Indicator: TA98, Metabolic Activation: RAT, LIVER, CYTOSOL, AROCLOR 1254, Method: STANDARD PLATE inactive; negative | Test System: AMES SALMONELLA TYPHIMURIUM, Strain/Indicator: TA98, Metabolic Activation: RAT, LIVER, MICROSOMES, AROCLOR 1254, Method: STANDARD PLATE inactive; negative | Test System: AMES SALMONELLA TYPHIMURIUM, Strain/Indicator: TA100, Metabolic Activation: RAT, LIVER, MICROSOMES, 2-METHYLCHRYSENE, Method: STANDARD PLATE inactive; negative | Test System: AMES SALMONELLA TYPHIMURIUM, Strain/Indicator: TA100, Metabolic Activation: RAT, LIVER, MICROSOMES, Method: STANDARD PLATE inactive; negative
active: Test System: AMES SALMONELLA TYPHIMURIUM, Strain/Indicator: TA100, Metabolic Activation: RAT, LIVER, MICROSOMES, AROCLOR 1254, Method: STANDARD PLATE active; positive
